Laboratory results as given in publication PMC10709440, “High-throughput ligand profile characterization in novel cell lines expressing seven heterologous insect olfactory receptors for the detection of volatile plant biomarkers” (Scientific Reports, 2023).

Legend:
[1] = target: T1, Drosophila OR49b (Drosophila melanogaster, UniProt Q9V6H2); assay: cell-based; settings: for activation at 1 µM / activation at 10 µM / activation at 100 µM: HEK293, read-out: OR49b response (VUAA1-normalized response); for activation at 1 µM: VOC concentration 1 μM; for activation at 10 µM: VOC concentration 10 μM; for activation at 100 µM: VOC concentration 100 μM; for Average response: OR49b cell line, mean of biological replicates; for DF norm AVERAGE OR49b: threshold 0.05, below shown as 0
T1 construct: expressed in transfected cells
T1 sequence (Q9V6H2 1-375): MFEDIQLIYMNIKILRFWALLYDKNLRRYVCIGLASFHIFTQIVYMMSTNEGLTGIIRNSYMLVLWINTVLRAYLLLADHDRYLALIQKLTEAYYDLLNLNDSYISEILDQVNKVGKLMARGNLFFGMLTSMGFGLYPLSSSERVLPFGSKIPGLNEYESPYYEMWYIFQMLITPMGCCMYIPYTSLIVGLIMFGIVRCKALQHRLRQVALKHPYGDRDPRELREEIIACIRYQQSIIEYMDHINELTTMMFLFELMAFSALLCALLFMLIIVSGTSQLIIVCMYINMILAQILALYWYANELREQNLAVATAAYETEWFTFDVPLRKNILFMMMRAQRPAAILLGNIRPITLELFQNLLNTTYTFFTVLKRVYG
T1 sequence (Q9VNB5 1-486 partner): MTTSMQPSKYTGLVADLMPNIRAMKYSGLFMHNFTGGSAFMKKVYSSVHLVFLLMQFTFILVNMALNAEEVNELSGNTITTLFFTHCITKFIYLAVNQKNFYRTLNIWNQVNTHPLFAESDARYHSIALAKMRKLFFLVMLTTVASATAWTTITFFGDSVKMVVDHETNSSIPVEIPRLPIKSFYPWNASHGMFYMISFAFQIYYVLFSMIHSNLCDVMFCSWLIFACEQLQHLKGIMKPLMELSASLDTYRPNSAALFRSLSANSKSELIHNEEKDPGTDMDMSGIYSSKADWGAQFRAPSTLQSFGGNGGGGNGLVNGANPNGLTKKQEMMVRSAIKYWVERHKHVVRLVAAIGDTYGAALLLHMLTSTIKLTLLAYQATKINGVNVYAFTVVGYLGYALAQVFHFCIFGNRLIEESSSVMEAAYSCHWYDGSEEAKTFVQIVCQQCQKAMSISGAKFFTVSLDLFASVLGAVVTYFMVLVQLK
Description: (§1) These VUAA1 normalized ∆F values were used to compare the different receptors and ligands.
(§2) The concentration-dependent effect of the reference ligands on their cognate cell lines was examined in more detail. Twelve different ligand concentrations were measured on each cell line in an overall 0.01 μM to 100 μM concentration range with 5 repetitions with three technical replicates each time.
(§3) Twelve thousand to 18,000 cells were plated into each well of a black wall, transparent bottom 384-well microplate (Greiner) 48 h or 72 h before the measurements and were simultaneously treated with 1 μg/mL doxycycline. […] The plate has 24 columns, thus we could record responses in up to eight different cell lines in each plate. On the day of the experiment, the growth medium was replaced with 20 µL assay buffer/well (140 mM NaCl, 5 mM KCl, 2 mM CaCl2, 1 mM MgCl2, 5 mM HEPES-Na, 20 mM glucose, pH 7.3, 340 mOsm). […] Baseline fluorescence (F0) was recorded for 5 s, after which 7 µL VOC buffer (140 mM NaCl, 5 mM KCl, 2 mM CaCl2, 1 mM MgCl2, 5 mM HEPES-Na, 31 mM glucose, 0.1% DMSO, pH 7.3, 340 mOsm) was injected into each well in one row and the fluorescence response was recorded for an additional 30 s, at a rate of one read/sec. VOC solutions (VOC buffer with 4× concentration of the final measured VOC concentration, 9 µL/well was injected) were measured on the same wells in a second round with the same protocol. Each individual concentration of a specific VOC sample was recorded in three wells for the same cell line on the same microplate. The raw data were exported in xls file format, F0 and FMAX values, and the fluorescence intensity changes (∆F) were calculated in Excel (Microsoft) (Supplementary file Data summary.xlsx) using the following equation: ΔF=FMAX-F0/F0 (see also Fig. 1C). On each plate, we recorded the response of each cell line to 50 µM VUAA1. The average of these ∆F values of each cell line were used to calculate the VUAA1-normalized values for the rest of the plate, by dividing VOC response ∆F values by the average VUAA1 response ∆F value of the corresponding OR cell line. Each VOC-OR combination was measured three times as technical replicates. […] The average of these replicates were used as one ∆F and VUAA1-normalized ∆F in the following analysis.
(§4) In the next rows we tested the reference VOCs (or other VOCs known to activate the corresponding cell lines), in order to test if all cell lines are responsive. The remaining rows were used to test VOCs with unknown effect.
(§5) The recorded FMAX, F0, ∆F, VUAA1-normalized ∆F values, as well as the OR name, the name of the tested sample, and the final concentration for each well were copied into supplementary file Data summary.xlsx, that was used to summarize all the plates recorded. Here, the averages of the measurements were calculated for each receptor-VOC-concentration combination.

[2] = target: T2, Drosophila OR71a (Drosophila melanogaster, UniProt Q9VUK5); assay: Calcium ion fluorescence (GCaMP6) assay, OR71a stable HEK293 cell line; type: cell-based; settings: for activation at 1 µM / activation at 10 µM / activation at 100 µM: HEK293, read-out: OR71a response (VUAA1-normalized response); for Average response: OR71a cell line, VUAA1-normalized response, mean of biological replicates
T2 construct: expressed in transfected cells
T2 sequence (Q9VUK5 1-378): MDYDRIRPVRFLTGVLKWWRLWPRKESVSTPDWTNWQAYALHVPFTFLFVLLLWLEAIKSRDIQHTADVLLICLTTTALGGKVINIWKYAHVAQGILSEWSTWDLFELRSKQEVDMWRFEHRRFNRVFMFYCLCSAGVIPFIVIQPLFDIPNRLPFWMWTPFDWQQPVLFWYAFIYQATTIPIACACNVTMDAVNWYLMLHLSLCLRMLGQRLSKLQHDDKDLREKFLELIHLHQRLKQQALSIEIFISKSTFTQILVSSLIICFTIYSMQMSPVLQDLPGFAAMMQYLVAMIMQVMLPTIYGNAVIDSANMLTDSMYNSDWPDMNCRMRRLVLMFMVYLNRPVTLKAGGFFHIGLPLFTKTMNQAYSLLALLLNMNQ
T2 sequence (Q9VNB5 1-486 partner): T1 sequence (Q9VNB5 1-486 partner)
Description: as §1, §2, §3, §4, §5

[3] = ligand concentration 1 (unit not given)
[4] = ligand concentration 10 (unit not given)
[5] = ligand concentration 100 (unit not given)
[6] = ligand concentration 1 (unit not given), threshold 0.05, below shown as 0
[7] = ligand concentration 10 (unit not given), threshold 0.05, below shown as 0
[8] = ligand concentration 100 (unit not given), threshold 0.05, below shown as 0

Row | Compound | activation at 1 µM [1] [%] | activation at 10 µM [1] [%] | activation at 100 µM [1] [%] | Average response ([1]; odorant cc. 1 µM) | Average response ([1]; odorant cc. 10 µM) | Average response ([1]; odorant cc. 100 µM) | DF norm AVERAGE OR49b [1, 3] | DF norm AVERAGE OR49b [1, 4] | DF norm AVERAGE OR49b [1, 5] | activation at 1 µM [2] [%] | activation at 10 µM [2] [%] | activation at 100 µM [2] [%] | Average response ([2]; cc. 1 µM) | Average response ([2]; cc. 10 µM) | Average response ([2]; cc. 100 µM) | DF norm AVERAGE OR71a [2, 6] | DF norm AVERAGE OR71a [2, 7] | DF norm AVERAGE OR71a [2, 8] | further results
1 | CCCCCC(=O)OCC [ethyl hexanoate] | 0 | 0 | 0 | 0.00 | 0.00 | 0.00 | 0 | 0 | 0 | 0 | 0 | 0 | 0.0156 | 0.0153 | 0.00 | 0 | 0 | 0 | 
2 | CCCCCCCCC(CO)CCCCCC (stereo not drawn) [2-hexyl-1-decanol] | 0 | 0 | 8.56 | 0.00 | 0.00 | 0.0856 |  |  |  | 0 | 0 | 0 | 0.00 | 0.00 | 0.00 |  |  |  | DF norm AVERAGE OR71a ([2]; concentration 1, normalized fluorescence change, values below 0.05 threshold given as 0): 0; DF norm AVERAGE OR71a ([2]; concentration 10, normalized fluorescence change, values below 0.05 threshold given as 0): 0; DF norm AVERAGE OR71a ([2]; concentration 100, normalized fluorescence change, values below 0.05 threshold given as 0): 0
3 | CC(=O)OCC(C)C [isobutyl acetate] | 5 | 0 | 0 | 0.05 | 0.0342 | 0.00 | 0.05093 | 0 | 0 | 0 | 0 | 0 | 0.038 | 0.0316 | 0.00 | 0 | 0 | 0 | 
